The target in one data set is T1, human recombinant sEH (Homo sapiens, UniProt P34913).
T1 construct: made in house; host or cells: Sf9 cells infected with recombinant baculovirus (from Dr. Bruce Hammock, UC Davis)
T1 sequence (P34913 1-555): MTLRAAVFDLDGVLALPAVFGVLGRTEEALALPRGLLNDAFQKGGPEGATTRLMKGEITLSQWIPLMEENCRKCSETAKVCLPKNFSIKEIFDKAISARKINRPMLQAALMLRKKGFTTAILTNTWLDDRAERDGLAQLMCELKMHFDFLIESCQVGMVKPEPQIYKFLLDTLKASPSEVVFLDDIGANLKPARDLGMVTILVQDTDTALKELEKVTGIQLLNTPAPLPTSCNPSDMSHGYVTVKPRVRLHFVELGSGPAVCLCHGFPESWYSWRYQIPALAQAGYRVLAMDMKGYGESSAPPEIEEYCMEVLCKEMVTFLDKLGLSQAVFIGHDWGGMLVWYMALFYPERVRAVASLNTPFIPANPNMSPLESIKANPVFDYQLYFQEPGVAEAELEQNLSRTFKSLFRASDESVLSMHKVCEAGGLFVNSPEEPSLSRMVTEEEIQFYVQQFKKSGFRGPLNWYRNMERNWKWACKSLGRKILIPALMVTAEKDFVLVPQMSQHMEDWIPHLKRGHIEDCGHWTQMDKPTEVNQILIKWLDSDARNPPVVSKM
Description: Cell-free sEH activity assay (fluorescence-based, PHOME substrate). Format: biochemical. As to conditions: for sEH activity % of control at 1 μM / sEH activity % of control at 10 μM: residual activity; for inhibition at 10 µM: inhibition as stated in text. An excerpt:
Inspired by the reported crystallographic screening studies,[12],[13],[15] a series of aryl amide (12, 15–21) or urea (31–39) derivatives with a benzoxazolone head group were synthesized and assessed for inhibition of human recombinant sEH in a cell-free activity assay[27] (Tables 1 and 2). […] Consequently, compounds in which the amide group is attached to the benzoxazolone ring through NH could outperform their direct reversed analogues by more favorable interactions in the central pocket of sEH. In addition, simple methylation of the benzoxazolone NH in 17–18 engendered noticeable differences in sEH inhibition relative to the unmethylated counterparts 15–16, implying that a free NH with H-bond donor property at this location is also important for the observed potency. Subsequently, the positioning of the amide group at the 5-position of the benzoxazolone ring also retained the inhibitory activity.
Human recombinant sEH was expressed and purified as published before.[31] Briefly, Sf9 cells were infected with a recombinant baculovirus (obtained from Dr. Bruce Hammock, University of California, Davis, CA). Following 72 h of transfection, the cells were centrifuged and then sonicated (3 × 10 s at 4 °C) in lysis buffer comprising glycerol (10%), NaHPO4 (50 mM, pH 8), leupeptin (10 μg/mL), NaCl (300 mM), phenylmethanesulfonyl fluoride (1 mM), EDTA (1 mM), and soybean trypsin inhibitor (60 μg/mL). After centrifugation at 100,000g (60 min, 4 °C), the obtained supernatants were subjected to a benzylthio-sepharose-affinity chromatography and eluted with 4-fluorochalcone oxide in PBS containing 1 mM DTT and 1 mM EDTA for purification of sEH. The enzyme was dialyzed and concentrated (Millipore Amicon-Ultra-15 centrifugal filter), and the solution was further assayed for total protein content by a protein detection kit (Bio-Rad Laboratories, Munich, Germany). The epoxide hydrolase activity was measured using a fluorescence-based assay, as reported before.[27] In brief, sEH was diluted in Tris buffer (25 mM, pH 7) containing BSA (0.1 mg/mL) to a suitable enzyme concentration and pretreated with test compounds or 0.1% DMSO as vehicle for 10 min at room temperature. To start the reaction, 50 μM of the PHOME substrate (3-phenyl-cyano(6-methoxy-2-naphthalenyl)methyl ester-2-oxiraneacetic acid), a nonfluorescent compound that is enzymatically converted by sEH into fluorescent 6-methoxy-naphtaldehyde, was added at RT. The reaction was stopped by addition of ZnSO4 (200 mM) after 60 min, and fluorescence was measured (λem 465 nm, λex 330 nm) by employing a NOVOstar microplate reader (BMG LABTECH GmbH, Ortenberg, Germany). If required, the potential fluorescence of test compounds was subtracted from the readout.

The mark [1] stands for this setting: mean ± SEM, n = 3, benzoxazolone-amides (Table 1).
[2] abbreviates: cell-free assay, benzoxazolone-amides (Table 1).
Setting [3] is: mean ± SEM, n = 3, benzoxazolone-ureas (Table 2).
[4] abbreviates: cell-free assay, mean ± SEM, n = 3, benzoxazolone-ureas (Table 2).

Experimental findings from PMC9850727, “Benzoxazolone-5-Urea Derivatives as Human Soluble Epoxide Hydrolase (sEH) Inhibitors” (ACS Omega, 2023) are described below.

Each structure is given as a SMILES string. Where only a bound is given, the exact number is not on record here.

`O=C(Nc1ccc(OCc2ccccc2)cc1)c1ccc2[nH]c(=O)oc2c1` [Compound 12, N-[4-(Benzyloxy)phenyl]-2-oxo-2,3-dihydro-1,3-benzoxazole-6-carboxamide] had a melting point greater than 300 °C. On human recombinant sEH (setting [1]), the “sEH activity % of control at 1 μM” value is reported as 91.0 ± 6.1 % of control and the “sEH activity % of control at 10 μM” value is reported as 84.4 ± 3.8 % of control. Further, the “sEH inhibition (in words)” value on human recombinant sEH (cell-free assay) is given as “devoid of sEH inhibition”. The IC50 on human recombinant sEH (setting [2]) was greater than 10000 nM.
In turn, `O=C(Nc1ccc2[nH]c(=O)oc2c1)c1ccc(OCc2ccccc2)cc1` [Compound 15, 4-(Benzyloxy)-N-(2-oxo-2,3-dihydro-1,3-benzoxazol-6-yl)benzamide] returned a melting point of 256.6 to 259 °C. Also, at human recombinant sEH (setting [1]), the “sEH activity % of control at 1 μM” value was 67.8 ± 10.8 % of control and the “sEH activity % of control at 10 μM” value is 28.9 ± 8.1 % of control. The inhibition at 10 µM at human recombinant sEH was found to be 70%. Further, the IC50 at human recombinant sEH (setting [2]) was less than 10000 nM.
In the same order, the values of `O=C(Nc1ccc2[nH]c(=O)oc2c1)c1ccc(Oc2ccccc2)cc1` [Compound 16, N-(2-Oxo-2,3-dihydro-1,3-benzoxazol-6-yl)-4-phenoxybenzamide] are 231.8 to 233 °C, 49.8 ± 6.3 % of control, 15.2 ± 5.9 % of control, 85% and roughly 1000 nM.
For `Cn1c(=O)oc2cc(NC(=O)c3ccc(OCc4ccccc4)cc3)ccc21` [Compound 17, 4-(Benzyloxy)-N-(3-methyl-2-oxo-2,3-dihydro-1,3-benzoxazol-6-yl)benzamide], the melting point is 251.8 to 253.7 °C. On human recombinant sEH (setting [1]), the “sEH activity % of control at 1 μM” value was 105.8 ± 15.9 % of control and the “sEH activity % of control at 10 μM” value is reported as 115.1 ± 4.9 % of control. Further, the IC50 on human recombinant sEH (setting [2]) was greater than 10000 nM.
`Cn1c(=O)oc2cc(NC(=O)c3ccc(Oc4ccccc4)cc3)ccc21` [Compound 18, N-(3-Methyl-2-oxo-2,3-dihydro-1,3-benzoxazol-6-yl)-4-phenoxybenzamide] returned a melting point of 229.1 to 231.1 °C. Also, at human recombinant sEH (setting [1]), the “sEH activity % of control at 1 μM” value is reported as 83.7 ± 9.8 % of control and the “sEH activity % of control at 10 μM” value was 91.5 ± 2.8 % of control. In addition, the 50% inhibitory concentration (IC50) at human recombinant sEH (setting [2]) was greater than 10000 nM.
The corresponding values for `O=C(Nc1ccc2oc(=O)[nH]c2c1)c1ccc(OCc2ccccc2)cc1` [Compound 20, 4-(Benzyloxy)-N-(2-oxo-2,3-dihydro-1,3-benzoxazol-5-yl)benzamide] are 260.7 to 262.8 °C, 68.2 ± 6.6 % of control, 30.0 ± 10.5 % of control and less than 10000 nM.
In the same order, the values of `O=C(Nc1ccc2oc(=O)[nH]c2c1)c1ccc(Oc2ccccc2)cc1` [Compound 21, N-(2-Oxo-2,3-dihydro-1,3-benzoxazol-5-yl)-4-phenoxybenzamide] are 231 to 233 °C, 47.4 ± 7.1 % of control, 14.4 ± 6.8 % of control and roughly 1000 nM.
As for `O=C(NCc1ccccc1Cl)Nc1ccc2oc(=O)[nH]c2c1` [Compound 31, 1-[(2-Chlorophenyl)methyl]-3-(2-oxo-2,3-dihydro-1,3-benzoxazol-5-yl)urea], the melting point is 242.5 °C (dec.). Besides, at human recombinant sEH (setting [3]), the “sEH activity % of control at 1 μM” value is recorded as 3.1 ± 6.2 % of control and the “sEH activity % of control at 10 μM” value is on record as 5.8 ± 6.2 % of control. Also, on human recombinant sEH (setting [4]), the IC50 was 9.9 ± 2.9 nM.
The corresponding values for `O=C(NCc1ccccc1C(F)(F)F)Nc1ccc2oc(=O)[nH]c2c1` [Compound 32, 3-(2-Oxo-2,3-dihydro-1,3-benzoxazol-5-yl)-1-{[2-(trifluoromethyl)phenyl]methyl}urea] are 237.8 °C (dec.), 7.1 ± 5.8 % of control, 4.7 ± 8.0 % of control and 2 ± 0.42 nM.
In the same order, the values of `O=C(NCc1cccc(Cl)c1)Nc1ccc2oc(=O)[nH]c2c1` [Compound 34, 1-[(3-Chlorophenyl)methyl]-3-(2-oxo-2,3-dihydro-1,3-benzoxazol-5-yl)urea] are 244.5 °C (dec.), 18.6 ± 5.1 % of control, 7.5 ± 3.4 % of control and 80 ± 23 nM.
The corresponding values for `O=C(NCc1ccc(F)cc1)Nc1ccc2oc(=O)[nH]c2c1` [Compound 35, 1-[(4-Fluorophenyl)methyl]-3-(2-oxo-2,3-dihydro-1,3-benzoxazol-5-yl)urea] are 249.3 °C (dec.), 62.8 ± 3.3 % of control, 5.2 ± 3.6 % of control and 570 ± 15 nM.
On to `O=C(NCc1ccc(Cl)cc1)Nc1ccc2oc(=O)[nH]c2c1` [Compound 36, 1-[(4-Chlorophenyl)methyl]-3-(2-oxo-2,3-dihydro-1,3-benzoxazol-5-yl)urea], for which the melting point was 251 °C (dec.). Besides, at human recombinant sEH (setting [3]), the “sEH activity % of control at 1 μM” value is 18.6 ± 2.6 % of control and the “sEH activity % of control at 10 μM” value was 1.9 ± 2.4 % of control. For the same compound, the IC50 on human recombinant sEH (setting [4]) was found to be 120 ± 20 nM.
The corresponding values for `O=C(NCc1ccc(C(F)(F)F)cc1)Nc1ccc2oc(=O)[nH]c2c1` [Compound 37, 3-(2-Oxo-2,3-dihydro-1,3-benzoxazol-5-yl)-1-{[4-(trifluoromethyl)phenyl]methyl}urea] are 213.6 °C (dec.), 12.3 ± 2.5 % of control, 1.1 ± 1.8 % of control and 53 ± 8 nM.
The corresponding values for `O=C(NCc1cccc(F)c1F)Nc1ccc2oc(=O)[nH]c2c1` [Compound 39, 1-[(2,3-Difluorophenyl)methyl]-3-(2-oxo-2,3-dihydro-1,3-benzoxazol-5-yl)urea] are 259.9 °C (dec.), 14.2 ± 2.7 % of control, 0.8 ± 2.0 % of control and 33 ± 10 nM.
